Laboratory results as given in patent publication US20250296971A1, “GASTRIC INHIBITORY PEPTIDE RECEPTOR LIGANDS” (priority 2021, published 2025).
Where two headings read alike, the source gives them in different places. *1 amine or outer side, *2 acyl side, *3 side chain or, on linkers, in order; H or OH if unused. Where a SMILES comes first, the peptide text is derived from it. Bridges are numbered along the chain shown (N, C = ends). [ ]: non-standard residue; d: D form. The star is where a group is joined. X20 = O=C(CC[C@H](NC(=O)CN1CCN2CCN3CCN(CC1)CC(=O)[O][Ga]([O]C(=O)C2)[O]C(=O)C3)C(=O)*)NC[C@H](O)[C@@H](O)[C@H](O)[C@H](O)CO; TBMB(SCH2CH2NH-DOTA) = O=C(O)CN1CCN(CC(=O)O)CCN(CC(=O)NCCSCc2cc(C[*:1])cc(C[*:2])c2)CCN(CC(=O)O)CC1; X5 = NC(=O)[C@H](CCCCNC(=O)CN1CCN(CC(=O)O)CCN(CC(=O)O)CCN(CC(=O)O)CC1)NC(=O)CCC(=O)NCCCOCCOCCOCCCN*; DOTA(In) = O=C1CN2CCN3CCN(CC(=O)*)CCN(CC2)CC(=O)[O][In]([O]1)[O]C(=O)C3; NH(1-deoxy-D-glucityl) = OC[C@@H](O)[C@@H](O)[C@H](O)[C@@H](O)CN*; DOTA = O=C(O)CN1CCN(CC(=O)O)CCN(CC(=O)*)CCN(CC(=O)O)CC1; Trp(5-Cl) = N[C@@H](Cc1c[nH]c2ccc(Cl)cc12)C(=O)O; Pyridine(2,6-diCH2) = c1cc(C[*:1])nc(C[*:2])c1; Pro(4R-NH2) = N[C@H]1CN[C@H](C(=O)O)C1; mXylylene = c1cc(C[*:1])cc(C[*:2])c1; Glutaryl = O=C(CCCC(=O)[*:2])[*:1]; X7 = c1cc(CSCCN[*:2])cc(C[*:1])c1; Cya = N[C@@H](CS(=O)(=O)O)C(=O)O; Hyp = O=C(O)[C@@H]1C[C@@H](O)CN1; X1 = O=C(CN1CCC(N[*:1])CC1)[*:2]; Suc = O=C(CCC(=O)[*:2])[*:1]; Api = NC1(C(=O)O)CCNCC1; Thp = NC1(C(=O)O)CCOCC1; Aib = CC(C)(N)C(=O)O

Biological target: T1, GIPR (CHO-K1-hGIPR cells) (Homo sapiens, UniProt P48546)
T1 construct: host or cells: CHO-K1
T1 sequence (P48546 22-466): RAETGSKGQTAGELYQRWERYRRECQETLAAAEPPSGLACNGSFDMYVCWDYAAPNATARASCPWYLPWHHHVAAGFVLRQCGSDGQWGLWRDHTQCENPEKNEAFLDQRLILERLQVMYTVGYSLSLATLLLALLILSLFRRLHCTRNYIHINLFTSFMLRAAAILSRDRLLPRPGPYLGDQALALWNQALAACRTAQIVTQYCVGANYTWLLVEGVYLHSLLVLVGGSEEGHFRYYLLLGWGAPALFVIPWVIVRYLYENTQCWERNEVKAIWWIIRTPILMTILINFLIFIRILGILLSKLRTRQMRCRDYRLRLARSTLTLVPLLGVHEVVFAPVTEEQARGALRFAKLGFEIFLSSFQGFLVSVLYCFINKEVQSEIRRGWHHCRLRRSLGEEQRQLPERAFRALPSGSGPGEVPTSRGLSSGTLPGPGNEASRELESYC
Assay: FACS binding assay
Summary of the method: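 CHO-K1 cells stably expressing human GIPR were detached with Accutase, suspended at 500.000 cells per mL in PBS with 1% FCS, and washed ice-cold. Bound peptide was detected with 1 μg/mL APC-streptavidin for 30 min on ice.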

[1] = competition with 20 nM GIP-057, 4° C., 1 hour, read-out: pIC50 Category (converted)
[2] = competition with 20 nM GIP-057, 4° C. for 1 hour, read-out: pIC50 Category (converted)

SMILES	IC50 [1] [nM]	IC50 [2] [nM]	also measured
CC[C@H](C)[C@@H]1NC(=O)[C@H](CC(C)C)NC(=O)C2(CCN(C(=O)[C@H](CCC(=O)NC[C@H](O)[C@@H](O)[C@H](O)[C@H](O)CO)NC(=O)CN3CCN4CCN5CCN(CC3)CC(=O)[O][Ga]([O]C(=O)C4)[O]C(=O)C5)CC2)NC(=O)[C@@H](NC(=O)[C@@H](CC(C)C)NC(=O)[C@H](CCC(=O)O)NC(=O)[C@@H]2C[C@@H](N)CN2C(=O)[C@H](Cc2c[nH]c3ccc(Cl)cc23)NC(=O)[C@H](Cc2c[nH]c3ccccc23)NC(=O)[C@H](CC(=O)O)NC(=O)CN2CCC(NC(=O)CCCC(=O)NC[C@H](O)[C@@H](O)[C@H](O)[C@H](O)CO)CC2)CSCc2cccc(n2)CSC[C@@H](C(=O)NC2CCN(CC(=O)N[C@H](CCC(=O)NC[C@H](O)[C@@H](O)[C@H](O)[C@H](O)CO)C(N)=O)CC2)NC1=O [GIP-059, AGLU-Glutar-APAc-Asp-Trp-5Clw-Tap-Glu-leu-[Cys(2Lut)-Apc(GaDOTA-glu(AGLU))-Leu-Ile-Cys]-APAc-glu(AGLU)-NH2] ({NH(1-deoxy-D-glucityl)-Glutaryl}-[X1]DW[Trp(5-Cl)][Pro(4R-NH2)]E[dL]C[Api](X20)LIC[X1][dE](NH(1-deoxy-D-glucityl))-NH2; linker 8-12 via Pyridine(2,6-diCH2))			IC50 (pIC50 Category, competition with 20 nM GIP-057, 4° C., 1 hour): < 10 nM
CC[C@H](C)[C@@H]1NC(=O)[C@H](CC(C)C)NC(=O)[C@H](C)NC(=O)[C@@H](NC(=O)[C@H](CC(C)C)NC(=O)[C@H](CCC(=O)O)NC(=O)[C@@H]2CCCN2C(=O)[C@H](Cc2c[nH]c3ccccc23)NC(=O)[C@H](Cc2c[nH]c3ccccc23)NC(=O)[C@H](CS(=O)(=O)O)NC(C)=O)CSCc2cccc(c2)CSC[C@@H](C(N)=O)NC1=O [GIP-317, Ac-Cya-Trp-Trp-Pro-Glu-Leu-[Cys(3MeBn)-Ala-Leu-Ile-Cys]-NH2] (Ac-[Cya]WWPELCALIC-NH2; linker 7-11 via mXylylene)		100 to 794	
CC[C@H](C)[C@@H]1NC(=O)[C@H](CC(C)C)NC(=O)[C@@H](C)NC(=O)[C@@H](NC(=O)[C@@H](CC(C)C)NC(=O)[C@H](CCC(=O)O)NC(=O)[C@@H]2CCCN2C(=O)[C@H](Cc2c[nH]c3ccccc23)NC(=O)[C@H](Cc2c[nH]c3ccccc23)NC(=O)CCC(=O)O)CSCc2cc(CSCCNC(=O)CN3CCN(CC(=O)O)CCN(CC(=O)O)CCN(CC(=O)O)CC3)cc(c2)CSC[C@@H](C(N)=O)NC1=O [GIP-287, HO-Succinyl-Trp-Trp-Pro-Glu-leu-[Cys(tMeBn(DOTA-AET))-ala-Leu-Ile-Cys]-NH2] (Suc-WWPE[dL]C[dA]LIC-NH2; linker 6-10 via TBMB(SCH2CH2NH-DOTA))		> 1000	
CC[C@H](C)[C@@H]1NC(=O)[C@H](CC(C)C)NC(=O)C2(CCOCC2)NC(=O)[C@@H](NC(=O)[C@@H](CC(C)C)NC(=O)[C@H](CCC(=O)O)NC(=O)[C@@H]2C[C@@H](O)CN2C(=O)[C@H](Cc2c[nH]c3ccc(Cl)cc23)NC(=O)[C@H](Cc2c[nH]c3ccccc23)NC(=O)CCC(=O)O)CSCc2cccc(n2)CSC[C@@H](C(=O)NC2CCN(CC(=O)N[C@@H](CCCCNC(=O)CN3CCN4CCN5CCN(CC3)CC(=O)[O][In]([O]C(=O)C4)[O]C(=O)C5)C(N)=O)CC2)NC1=O [GIP-168, HO-Succinyl-Trp-5Clw-Hyp-Glu-leu-[Cys(2Lut)-Thp-Leu-Ile-Cys]-APAc-Lys(InDOTA)-NH2] (Suc-W[Trp(5-Cl)][Hyp]E[dL]C[Thp]LIC[X1]K(DOTA(In))-NH2; linker 6-10 via Pyridine(2,6-diCH2))	< 10		
CC[C@H](C)[C@@H]1NC(=O)[C@H](CC(C)C)NC(=O)C(C)(C)NC(=O)[C@@H](NC(=O)[C@H](CC(C)C)NC(=O)[C@H](CCC(=O)O)NC(=O)[C@@H]2CCCN2C(=O)[C@H](Cc2c[nH]c3ccccc23)NC(=O)[C@H](Cc2c[nH]c3ccccc23)NC(=O)[C@H](CC(=O)O)NC(C)=O)CSCc2cccc(c2)CSCCNC1=O [GIP-251, Ac-Asp-Trp-Tip-Pro-Glu-Leu-[Cys(3MeBn)-Aib-Leu-Ile-AET]] (Ac-DWWPELC[Aib]LI; linker 7-C via X7)		10 to 79.4	
CC[C@H](C)[C@@H]1NC(=O)[C@H](CC(C)C)NC(=O)C2(CCOCC2)NC(=O)[C@@H](NC(=O)[C@@H](CC(C)C)NC(=O)[C@H](CCC(N)=O)NC(=O)[C@@H]2C[C@@H](O)CN2C(=O)[C@H](Cc2c[nH]c3ccc(Cl)cc23)NC(=O)[C@H](Cc2c[nH]c3ccccc23)NC(=O)[C@H](CC(=O)O)NC(C)=O)CSCc2cccc(n2)CSC[C@@H](C(N)=O)NC1=O [GIP-193, Ac-Asp-Trp-5Clw-Hyp-Gln-leu-[Cys(2Lut)-Thp-Leu-Ile-Cys]-NH2] (Ac-DW[Trp(5-Cl)][Hyp]Q[dL]C[Thp]LIC-NH2; linker 7-11 via Pyridine(2,6-diCH2))	< 10		

The next lines start with results.

IC50 [1] [nM]	IC50 [2] [nM]	SMILES	also measured
10 to 79.4		CC[C@H](C)[C@@H]1NC(=O)[C@H](CC(C)C)NC(=O)C2(CCN(C(=O)CN3CCN(CC(=O)O)CCN(CC(=O)O)CCN(CC(=O)O)CC3)CC2)NC(=O)[C@@H](NC(=O)[C@@H](CC(C)C)NC(=O)[C@H](CCC(=O)O)NC(=O)[C@@H]2C[C@@H](N)CN2C(=O)[C@H](Cc2c[nH]c3ccc(Cl)cc23)NC(=O)[C@H](Cc2c[nH]c3ccccc23)NC(=O)[C@H](CC(=O)O)NC(=O)CCCC(=O)NC[C@H](O)[C@@H](O)[C@H](O)[C@H](O)CO)CSCc2cccc(n2)CSC[C@@H](C(=O)NC2CCN(CC(=O)N[C@H](CCC(=O)NC[C@H](O)[C@@H](O)[C@H](O)[C@H](O)CO)C(N)=O)CC2)NC1=O [GIP-052, AGLU-Glutar-Asp-Trp-5Clw-Tap-Glu-leu-[cys(2Lut)-Apc(DOTA)-Leu-Ile-cys]-APAc-glu(AGLU)-NH2] ({NH(1-deoxy-D-glucityl)-Glutaryl}-DW[Trp(5-Cl)][Pro(4R-NH2)]E[dL]C[Api](DOTA)LIC[X1][dE](NH(1-deoxy-D-glucityl))-NH2; linker 7-11 via Pyridine(2,6-diCH2))	
< 10		CC[C@H](C)[C@@H]1NC(=O)[C@H](CC(C)C)NC(=O)C(C)(C)NC(=O)[C@@H](NC(=O)[C@H](CC(C)C)NC(=O)[C@H](CCC(=O)O)NC(=O)[C@@H]2CCCN2C(=O)[C@H](Cc2c[nH]c3ccc(Cl)cc23)NC(=O)[C@H](Cc2c[nH]c3ccccc23)NC(=O)[C@H](CC(=O)O)NC(C)=O)CSCc2cccc(c2)CSC[C@@H](C(=O)NCCCOCCOCCOCCCNC(=O)CCC(=O)N[C@@H](CCCCNC(=O)CN2CCN(CC(=O)O)CCN(CC(=O)O)CCN(CC(=O)O)CC2)C(N)=O)NC1=O [GIP-076, Ac-Asp-Trp-5Clw-Pro-Glu-Leu-[Cys(3MeBn)-Aib-Leu-Ile-Cys]-Ttds-Lys(DOTA)-NH2] (Ac-DW[Trp(5-Cl)]PELC[Aib]LIC-X5; linker 7-11 via mXylylene)	
	100 to 794	CC[C@H](C)[C@@H]1NC(=O)[C@H](CC(C)C)NC(=O)C(C)(C)NC(=O)[C@@H](NC(=O)[C@H](CC(C)C)NC(=O)[C@H](CCC(=O)O)NC(=O)[C@@H]2CCCN2C(=O)[C@H](Cc2c[nH]c3ccccc23)NC(=O)[C@H](Cc2c[nH]c3ccc(Cl)cc23)NC(=O)[C@H](CC(=O)O)NC(C)=O)CSCc2cccc(c2)CSC[C@@H](C(=O)NCCCOCCOCCOCCCNC(=O)CCC(=O)N[C@@H](CCCCNC(=O)CN2CCN(CC(=O)O)CCN(CC(=O)O)CCN(CC(=O)O)CC2)C(N)=O)NC1=O [GIP-277, Ac-Asp-5Clw-Trp-Pro-Glu-Leu-[Cys(3MeBn)-Aib-Leu-Ile-Cys]-Ttds-Lys(DOTA)-NH2] (Ac-D[Trp(5-Cl)]WPELC[Aib]LIC-X5; linker 7-11 via mXylylene)	
